Literature values in patent publication US20110021553A1, “IMMUNOSUPPRESSIVE MACROLIDE POWDER FOR ORAL SUSPENSION” (priority 2008, published 2011).

Assays:
[1] = system: skin mast cells, basophils and eosinophils; conditions: in vitro
[2] = system: albumin and α1-glicoprotein; conditions: mainly albumin and α1-glicoprotein
[3] = not given; remark: listed apart in the source
[4] = main metabolites via CYP3A4

| Structure (SMILES) | excreted in unaltered state through urine (human, in vivo) | elimination through bile (main channel of elimination) | Bioavailability (oral, reduced with the presence of food) | time to concentration in steady state (orally 0.3 mg/Kg/day, liver transplant patients, majority of the cases) [days] | release of mediators [1] | combination to proteins [2] [%] | solubility in organic solvents ([3]; methanol, ethanol, acetone, ethyl acetate, chloroform and diethyl ether) | solubility in water ([3]; water) | immunosuppressive effect [4] |
| --- | --- | --- | --- | --- | --- | --- | --- | --- | --- |
| C=CC[C@@H]1/C=C(\C)C[C@H](C)C[C@H](OC)[C@H]2O[C@@](O)(C(=O)C(=O)N3CCCC[C@H]3C(=O)O[C@H](/C(C)=C/[C@@H]3CC[C@@H](O)[C@H](OC)C3)[C@H](C)[C@@H](O)CC1=O)[C@H](C)C[C@@H]2OC (relative stereo) [Tacrolimus, [3S-[3R*[E(1S*,3S*,4S*)], 4S*,5R*,8S*,9E,12R*,14R*,15S*,16R*,18S*,19S*,26aR*]]-5,6,8,11,12,13,14,15,16,17,18,19,24,25,26,26a-hexadecahydro-5,19-dihydroxy-3-[2-(4-hidroxy-3-metoxy-cyclohexyl)-1-metyletenyl]-14,16-dimethoxy-4,10,12,18-tetramethyl-8-(2-propenyl)-15,19-epoxy-3H-pyrido [2,1-c] [1,4] oxazacyclotricosine-1,7,20,21 (4H, 23H)-tetraone, monohydrate] | less than 1% | more than 90% | 4-89% | 3 | decreases the release of the mediators | 99 | soluble | insoluble |  |
| C=CCC1C=C(C)CC(C)CC(OC)C2OC(O)(C(=O)C(=O)N3CCCCC3C(=O)OC(C(C)=CC3CCC(O)C(OC)C3)C(C)C(O)CC1=O)C(C)CC2O (stereo not shown) [13-O-desmethyl tacrolimus] |  |  |  |  |  |  |  |  | neither of which have a measurable immunosuppresive effect |
| C=CCC1C=C(C)CC(C)CC(O)C2OC(O)(C(=O)C(=O)N3CCCCC3C(=O)OC(C(C)=CC3CCC(O)C(OC)C3)C(C)C(O)CC1=O)C(C)CC2OC (stereo not shown) [15-O-desmethyl tacrolimus] |  |  |  |  |  |  |  |  | neither of which have a measurable immunosuppresive effect |
